Experiment: Enhancement in bioavailability of drugs by the Cuminum cyminum active molecule / fraction
[1] = drug given with Active molecule (3′,5-dihydroxy flavone-7-O-β-D-galacturonide-4′-O-β-D-glucopyranoside)
[2] = drug given with Fraction from Cuminum cyminum

SMILES | % Enhancement in bioavailability [1] [%] | % Enhancement in bioavailability [2] [%]
O=c1[nH]cc(F)c(=O)[nH]1 [5-Fluorouracil] | 110 | 240
Nc1nc2c(ncn2COCCO)c(=O)[nH]1 [Acyclovir] | 89 | 110
Cc1nnc2n1-c1ccc(Cl)cc1C(c1ccccc1)=NC2 [Alprazolam] | 70 | 75
NCC[C@H](O)C(=O)N[C@@H]1C[C@H](N)[C@@H](O[C@H]2O[C@H](CN)[C@@H](O)[C@H](O)[C@H]2O)[C@H](O)[C@H]1O[C@H]1O[C@H](CO)[C@@H](O)[C@H](N)[C@H]1O [Amikacin] | 76 | 87
CCOC(=O)C1=C(COCCN)NC(C)=C(C(=O)OC)C1c1ccccc1Cl (stereo not drawn) [Amlodipine] | 80 | 130
CC1(C)S[C@@H]2[C@H](NC(=O)[C@H](N)c3ccc(O)cc3)C(=O)N2[C@H]1C(=O)O [Amoxycillin] | 68 | 105
C[C@@H]1[C@H](O)[C@@H](C)/C=C/C=C/C=C/C=C/C=C/C=C/C=C/[C@H](O[C@@H]2O[C@H](C)[C@@H](O)[C@H](N)[C@@H]2O)C[C@@H]2O[C@](O)(C[C@@H](O)C[C@@H](O)[C@H](O)CC[C@@H](O)C[C@@H](O)CC(=O)O[C@H]1C)C[C@H](O)[C@H]2C(=O)O [Amphotericin B] | 95 | 90
CC[C@H]1OC(=O)[C@H](C)[C@@H](O[C@H]2C[C@@](C)(OC)[C@@H](O)[C@H](C)O2)[C@H](C)[C@@H](O[C@@H]2O[C@H](C)C[C@H](N(C)C)[C@H]2O)[C@](C)(O)C[C@@H](C)CN(C)[C@H](C)[C@@H](O)[C@]1(C)O [Azithromycin] | 82 | 115
CN(Cc1cc(Br)cc(Br)c1N)C1CCCCC1 [Bromhexine] |  | 35
CC1=C(C(=O)O)N2C(=O)[C@@H](NC(=O)[C@H](N)c3ccc(O)cc3)[C@H]2SC1 [Cefadroxil] | 85 | 120
CO/N=C(\C(=O)N[C@@H]1C(=O)N2C(C(=O)O)=C(CSc3nc(=O)c(O)nn3C)CS[C@H]12)c1csc(N)n1 [Cefatrioxone] | 75 | 100
CN/C(=N/CCSCc1nc[nH]c1C)NC#N [Cimetidine] | 76 | 70
N[C@@H]1CON=C1O [Cycloserine] | 85 | 110
Nc1ccc(S(=O)(=O)c2ccc(N)cc2)cc1 [Dapsone] | 67 | 93
O=C(O)Cc1ccccc1Nc1c(Cl)cccc1Cl [Diclofenac] | 105 | 125
COc1cccc2c1C(=O)c1c(O)c3c(c(O)c1C2=O)C[C@@](O)(C(=O)CO)C[C@@H]3O[C@H]1C[C@H](N)[C@H](O)[C@H](C)O1 [Doxorubicin] | 78 | 90
CC[C@H]1OC(=O)[C@H](C)[C@@H](O[C@H]2C[C@@](C)(OC)[C@@H](O)[C@H](C)O2)[C@H](C)[C@@H](O[C@@H]2O[C@H](C)C[C@H](N(C)C)[C@H]2O)[C@](C)(O)C[C@@H](C)C(=O)[C@H](C)[C@@H](O)[C@]1(C)O [Erythromycin] | 70 | 80

SMILES | % Enhancement in bioavailability [1] [%] | % Enhancement in bioavailability [2] [%]
CCc1cc(C(N)=S)ccn1 [Ethionamide] | 120 | 110
O=C(CCCN1CCC(O)(c2ccc(Cl)cc2)CC1)c1ccc(F)cc1 [Haloperidol] | 72 | 60
NNC(=O)c1ccncc1 [Isoniazid] |  | 30
CC(=O)N1CCN(c2ccc(OCC3COC(Cn4ccnc4)(c4ccc(Cl)cc4Cl)O3)cc2)CC1 (stereo not drawn) [Ketoconazole] | 77 | 85
CN(Cc1cnc2nc(N)nc(N)c2n1)c1ccc(C(=O)N[C@@H](CCC(=O)O)C(=O)O)cc1 [Methotrexate] | 95 | 140
CS(=O)(=O)Nc1ccc([N+](=O)[O-])cc1Oc1ccccc1 [Nimesulide] | 90 | 115
CCn1cc(C(=O)O)c(=O)c2cc(F)c(N3CCNCC3)cc21 [Norfloxacin] | 45 | 55
COc1ccc2[nH]c([S+]([O-])Cc3ncc(C)c(OC)c3C)nc2c1 (stereo not drawn) [Omeprazole] | 72 | 87
CN1C(C(=O)Nc2ccccn2)=C(O)c2ccccc2S1(=O)=O [Piroxicam] | 76 | 100
CC(C)NCC(O)COc1cccc2ccccc12 (stereo not drawn) [Propranolol] | 85 | 140
CNC(=C[N+](=O)[O-])NCCSCc1ccc(CN(C)C)o1 [Ranitidine] | 95 | 95
CO[C@H]1/C=C/O[C@@]2(C)Oc3c(C)c(O)c4c(O)c(c(/C=N/N5CCN(C)CC5)c(O)c4c3C2=O)NC(=O)/C(C)=C\C=C\[C@H](C)[C@H](O)[C@@H](C)[C@@H](O)[C@@H](C)[C@H](OC(C)=O)[C@@H]1C [Rifampicin] | 90 | 170
CS(=O)(=O)c1ccc(C2=C(c3ccccc3)C(=O)OC2)cc1 [Rofecoxib] | 43 | 70
CC(C)(C)NCC(O)c1ccc(O)c(CO)c1 (stereo not drawn) [Salbutamol] | 98 | 75
C=CC[C@@H]1/C=C(\C)C[C@H](C)C[C@H](OC)[C@H]2O[C@@](O)(C(=O)C(=O)N3CCCC[C@H]3C(=O)O[C@H](/C(C)=C/[C@@H]3CC[C@@H](O)[C@H](OC)C3)[C@H](C)[C@@H](O)CC1=O)[C@H](C)C[C@@H]2OC [Tacrolimus] | 90 | 110
Cn1c(=O)c2[nH]cnc2n(C)c1=O [Theophylline] | 75 | 95
Cc1cn([C@H]2C[C@H](N=[N+]=[N-])[C@@H](CO)O2)c(=O)[nH]c1=O [Zidovudine] | 120 | 135
